Measurements: patent US20210163552A1, “PEPTIDE FOR INDUCING REGENERATION OF TISSUE, AND USE THEREOF” (SHIONOGI & CO., LTD., priority 2017, published 2021)
Where no end group is shown, it is not given here.

How the values were obtained:
[1] = Stability of peptides in plasma (Example 6); format: in vitro ADME; details: rat plasma on ice, assay concentration 5 μg/mL; for stability in rat plasma compared to 2-44 / stability in rat plasma, Peptide-3 and Peptide-6 compared with each other: 30 and 60 minutes (FIG. 3)
Protocol: A 5 mL tube previously charged with 60 μL of a 10% EDTA-2K was charged with 3 mL of whole blood collected from Crl: CD (SD) rats, and the contents were allowed to stand at room temperature for 30 minutes, and then centrifuged at 4° C. and at 3,000 rpm (1600×g) for 10 minutes. The supernatant was collected to be used as a blank plasma. The plasma obtained was stored on ice and only used on the day of the stability test.
Each of the peptide at position 2 to position 44 of human HMGB1 (2-44), the modified peptide prepared in Example 1 (Peptide-3), and the modified peptide prepared in Example 4 (Peptide-6) was prepared into a solution at 375 μg/mL with distilled water from a stock solution in which each peptide was dissolved in a 0.1% aqueous TFA solution at 1 mg/mL. Eight microliters of the solution was added to 592 μL of the blank plasma to prepare a sample for the stability test (assay concentration: 5 μg/mL). The sample for stability test was allowed to stand on ice, and 50 μL was collected immediately after the addition, and 30 and 60 minutes after the addition. To 50 μL of the collected sample were added 250 μL of 270 mmol/L citric acid solution/130 mmol/L EDTA-2K aqueous solution (4:1, v/v), and 50 μL of a 0.1% aqueous TFA solution, and mixed. To the mixture was added 350 μL of methanol and mixed, and further 100 μL of acetonitrile was added thereto and mixed, and the mixture was once frozen with dry ice. After 5 to 60 minutes, the frozen sample was thawed at room temperature, and the supernatant obtained by centrifugation at 4° C. and at 14,000×g for 3 minutes was collected in an amount of 400 μL, dried and solidified with a centrifugal concentrator (Spin Dryer Light VC-36R, manufactured by TAITEC CORPORATION), and dissolved in 200 μL of a 1% TFA/2% ACN Buffer, and filtrated with a filter (0.22 μm) to obtain samples for the measurement.
The samples for the measurement were introduced into high-performance liquid chromatograph-single quadrupolar mass spectrometer to detect the monitor ions peculiar to each of the peptides. From separately prepared samples of which concentrations were known, a calibration curve was drawn in a concentration range of from 0.1 to 10 μg/mL, and an inverse regression was obtained from peak areas of chromatograms obtained by measurements of each sample to obtain a peptide concentration in the samples. For the peptide concentration at each time point, a remaining rate (%) which was calculated by defining one immediately after the addition as 100 was plotted against the time after the addition (FIG. 3).

[2] = test system: murine bone marrow-derived stromal cell line ST2; test: Measurements of cell-migration activity (Example 2); format: cell-based; parameters: key: five levels of scores (−, ±, +, ++, +++); five levels of scores (−, ±, +, ++, +++); five levels of scores (−, ±, +, ++, +++); five levels of scores (−, ±, +, ++, +++); five levels of scores (−, ±, +, ++, +++); details: ST2 cells, peptide at 10 μM, cultured overnight, score from photographed images
Protocol: Cells of murine bone marrow-derived stromal cell line ST2 (RCB0224, RIKEN BioResource Research Center) were removed from a dish using TrypLE Express (Thermo Fisher Scientific), and collected by centrifugation at 25° C. and 1,500 rpm for 5 minutes. The cell pellets were prepared into a concentration of 7×10^5 cells/mL with RPMI 1640/10% FBS/1% PenStrep (Gibco), and seeded at 70 μL/insert well on a 24-well plate set with a culture insert (Nippon Genetics Co., Ltd.). After 24 hours, the culture insert was taken out, and the cells were washed once with RPMI 1640. Each of the peptide samples (a peptide of position 2 to position 44 of human HMGB1 (2-44), and the five kinds of modified peptides Peptide-1 to -5 prepared in Example 1), each prepared at 10 μM with an assay medium (RPMI 1640/0.1% FBS) was added in an amount of 550 μL, and the cells were further cultured overnight. As a negative control (NC), only the assay medium was added. After the culture, the cells were fixed, stained with DiffQuik, and photographed. The degree of cell migration of each group from the photographed images was evaluated with five levels of scores (−, ±, +, ++, +++). In addition, each of the peptide samples was subjected to three test runs under the same conditions.

Sequence: GKGDPKKPRGKMSSYAFFVQTCREEHKKKHPDASVNFSEFSKK [Peptide 2-44, GKGDPKKPR GKMSSYAFFVQTCREEHKKKHPDASVNFSEFSKK, reference compound]
- peptide concentration in the stability test sample (quantifiable lower limit) ([1]; 30 minutes after the addition): ≤ 0.5 µg/mL

Sequence: GKGDPKKPRGKMSSYAFFVQTCREEHKKKHPDASVNFSEFSPP [Peptide-6, GKGDPKKPR GKMSSYAFFVQTCREEHKKKHPDASVNFSEFSPP]
- stability in rat plasma compared to 2-44 [1]: stable as compared to 2-44
- stability in rat plasma, Peptide-3 and Peptide-6 compared with each other [1]: of the same level

Sequence: MGKGDPKKPRGKMSSYAFFVQTCREEHKKKHPDASVNFSEFSKA (MGKGDPKKPRGKMSSYAFFVQTCREEHKKKHPDASVNFSEFSKA) [Peptide-4]
- degree of cell migration, 1st Run [2]: ++
- degree of cell migration, 2nd Run [2]: +
- degree of cell migration, 3rd Run [2]: +++

Sequence: MGKGDPKKPRGKMSSYAFFVQTCREEHKKKHPDASVNFSEFSKE (MGKGDPKKPRGKMSSYAFFVQTCREEHKKKHPDASVNFSEFSKE) [Peptide-5]
- degree of cell migration, 1st Run [2]: ++
- degree of cell migration, 2nd Run [2]: ++
- degree of cell migration, 3rd Run [2]: ++

Sequence: MGKGDPKKPRGKMSSYAFFVQTCREEHKKKHPDASVNFSEFSKP (MGKGDPKKPRGKMSSYAFFVQTCREEHKKKHPDASVNFSEFSKP) [Peptide-1]
- degree of cell migration, 1st Run [2]: +++
- degree of cell migration, 2nd Run [2]: +
- degree of cell migration, 3rd Run [2]: +++

Sequence: MGKGDPKKPRGKMSSYAFFVQTCREEHKKKHPDASVNFSEFSPK (MGKGDPKKPRGKMSSYAFFVQTCREEHKKKHPDASVNFSEFSPK) [Peptide-2]
- degree of cell migration, 1st Run [2]: +++
- degree of cell migration, 2nd Run [2]: ++
- degree of cell migration, 3rd Run [2]: +++

Sequence: MGKGDPKKPRGKMSSYAFFVQTCREEHKKKHPDASVNFSEFSPP [Peptide-3, MGKGDPKKPRGKMSSYAFFVQTCREEHKKKHPDASVNFSEFSPP]
- stability in rat plasma compared to 2-44 [1]: stable as compared to 2-44
- stability in rat plasma, Peptide-3 and Peptide-6 compared with each other [1]: of the same level
